Laboratory results published in the NIST ThermoML archive (doi:10.1016/j.jct.2013.02.022).

Assays:
[1] = refractive index (Na D-line) (dimensionless); xn = mol fraction of the nth substance listed; details: 101 kPa, Liquid, Standard Abbe refractometry
[2] = xn = mol fraction of the nth substance listed; details: 101 kPa, Liquid, Vibrating tube method

CCCC(=O)[O-].C[NH2+]CCO [N-methyl-2-hydroxyethylammonium butanoate] + CCOC(C)=O
Details | mass density, [2] [kg/m3] | refractive index, [1]
303.15 K, x2 = 0 | 1035.87 | 1.4534
303.15 K, x2 = 0.0454 | – | 1.4533
303.15 K, x2 = 0.0956 | – | 1.4511
303.15 K, x2 = 0.199 | 1013.58 | 1.4472
303.15 K, x2 = 0.2901 | 1004.61 | 1.4411
303.15 K, x2 = 0.412 | – | 1.4324
303.15 K, x2 = 0.507 | 981.19 | 1.4246
303.15 K, x2 = 0.6018 | – | 1.4161
303.15 K, x2 = 0.7039 | 950.35 | 1.4055
303.15 K, x2 = 0.8031 | 931.53 | 1.3949
303.15 K, x2 = 0.8998 | 911.57 | 1.3812
303.15 K, x2 = 0.9497 | – | 1.3746
303.16 K, x2 = 0.0454 | 1026.24 | –
303.16 K, x2 = 0.0956 | 1022.32 | –
303.16 K, x2 = 0.412 | 992.58 | –
303.16 K, x2 = 0.6018 | 967.06 | –
303.16 K, x2 = 0.9497 | 900.62 | –
308.15 K, x2 = 0 | 1032.53 | –
308.15 K, x2 = 0.0956 | 1018.71 | –
308.15 K, x2 = 0.199 | 1009.85 | –
308.15 K, x2 = 0.2901 | 1000.57 | –
308.15 K, x2 = 0.412 | 987.98 | –
308.15 K, x2 = 0.507 | 976.57 | –
308.15 K, x2 = 0.6018 | 962.31 | –
308.15 K, x2 = 0.7039 | 945.26 | –
308.15 K, x2 = 0.8031 | 926.08 | –
308.15 K, x2 = 0.8998 | 905.73 | –
308.16 K, x2 = 0.0454 | 1022.67 | –
308.16 K, x2 = 0.9497 | 894.58 | –
313.15 K, x2 = 0.0454 | 1019.09 | –
313.15 K, x2 = 0.0956 | 1015.1 | –
313.15 K, x2 = 0.6018 | 957.53 | –
313.16 K, x2 = 0 | 1029.14 | –
313.16 K, x2 = 0.199 | 1006.08 | –
313.16 K, x2 = 0.2901 | 996.56 | –
313.16 K, x2 = 0.412 | 983.25 | –
313.16 K, x2 = 0.507 | 971.82 | –
313.16 K, x2 = 0.7039 | 940.11 | –
313.16 K, x2 = 0.8031 | 920.58 | –
313.16 K, x2 = 0.8998 | 899.84 | –
313.16 K, x2 = 0.9497 | 888.5 | –
318.15 K, x2 = 0.9497 | 882.16 | –
318.16 K, x2 = 0 | 1025.72 | –
318.16 K, x2 = 0.0454 | 1015.66 | –
318.16 K, x2 = 0.0956 | 1011.66 | –
318.16 K, x2 = 0.199 | 1002.32 | –
318.16 K, x2 = 0.2901 | 992.61 | –
318.16 K, x2 = 0.412 | 978.49 | –
318.16 K, x2 = 0.507 | 967.05 | –
318.16 K, x2 = 0.6018 | 952.68 | –
318.16 K, x2 = 0.7039 | 934.92 | –
318.16 K, x2 = 0.8031 | 915.03 | –
318.16 K, x2 = 0.8998 | 893.91 | –
323.14 K, x2 = 0.0454 | 1012.2 | –
323.14 K, x2 = 0.0956 | 1007.98 | –
323.14 K, x2 = 0.199 | 998.56 | –
323.14 K, x2 = 0.2901 | 988.83 | –
323.14 K, x2 = 0.412 | 974.67 | –
323.14 K, x2 = 0.507 | 962.75 | –
323.14 K, x2 = 0.7039 | 929.55 | –
323.14 K, x2 = 0.8031 | 909.33 | –
323.14 K, x2 = 0.8998 | 887.92 | –
323.15 K, x2 = 0.6018 | 947.5 | –
323.15 K, x2 = 0.9497 | 876.1 | –
323.16 K, x2 = 0 | 1022.26 | –

CCCC(=O)[O-].C[NH2+]CCO [N-methyl-2-hydroxyethylammonium butanoate] + COC(C)=O
Details | mass density, [2] [kg/m3] | refractive index, [1]
288.14 K, x2 = 0.7912 | 977.2 | –
288.15 K, x2 = 0 | 1046 | 1.4579
288.15 K, x2 = 0.0646 | 1040 | 1.4558
288.15 K, x2 = 0.1097 | 1036.1 | 1.4556
288.15 K, x2 = 0.2074 | 1027.3 | 1.4509
288.15 K, x2 = 0.3079 | 1021.07 | 1.4449
288.15 K, x2 = 0.3983 | 1015.6 | 1.4399
288.15 K, x2 = 0.4973 | 1011.5 | 1.4327
288.15 K, x2 = 0.5928 | 1003 | 1.4232
288.15 K, x2 = 0.6898 | 991.4 | 1.413
288.15 K, x2 = 0.7912 | – | 1.3996
288.15 K, x2 = 0.8979 | – | 1.3833
288.15 K, x2 = 0.898 | 959.7 | –
288.15 K, x2 = 0.9483 | – | 1.3746
288.16 K, x2 = 0.9483 | 950.1 | –
293.14 K, x2 = 0.0646 | 1036.4 | –
293.14 K, x2 = 0.1097 | 1032.5 | –
293.14 K, x2 = 0.9483 | 943.8 | –
293.15 K, x2 = 0 | 1042.6 | –
293.15 K, x2 = 0.2074 | 1024 | –
293.15 K, x2 = 0.3079 | 1017.3 | –
293.15 K, x2 = 0.3983 | 1011.4 | –
293.15 K, x2 = 0.4973 | 1007.2 | –
293.15 K, x2 = 0.5928 | 998.4 | –
293.15 K, x2 = 0.6898 | 986.5 | –
293.15 K, x2 = 0.7912 | 971.7 | –
293.15 K, x2 = 0.898 | 953.8 | –
298.14 K, x2 = 0.0646 | 1032.8 | –
298.14 K, x2 = 0.3983 | 1007.1 | –
298.14 K, x2 = 0.6898 | 981.5 | –
298.14 K, x2 = 0.7912 | 966.2 | –
298.14 K, x2 = 0.898 | 947.7 | –
298.14 K, x2 = 0.9483 | 937.5 | –
298.15 K, x2 = 0 | 1039.2 | –
298.15 K, x2 = 0.1097 | 1028.9 | –
298.15 K, x2 = 0.2074 | 1019.6 | –
298.15 K, x2 = 0.3079 | 1013.2 | –
298.15 K, x2 = 0.4973 | 1002.9 | –
298.15 K, x2 = 0.5928 | 993.7 | –
303.14 K, x2 = 0.0646 | 1029.1 | –
303.14 K, x2 = 0.2074 | 1015.8 | –
303.14 K, x2 = 0.3983 | 1002.8 | –
303.14 K, x2 = 0.4973 | 998.4 | –
303.14 K, x2 = 0.5928 | 989.1 | –
303.14 K, x2 = 0.6898 | 976.4 | –
303.14 K, x2 = 0.7912 | 960.7 | –
303.14 K, x2 = 0.898 | 941.6 | –
303.14 K, x2 = 0.9483 | 931.1 | –
303.15 K, x2 = 0 | 1035.9 | –
303.15 K, x2 = 0.1097 | 1025.2 | –
303.15 K, x2 = 0.3079 | 1009 | –
308.14 K, x2 = 0.0646 | 1025.6 | –
308.14 K, x2 = 0.2074 | 1013.3 | –
308.14 K, x2 = 0.3079 | 1004.8 | –
308.14 K, x2 = 0.3983 | 998.5 | –
308.14 K, x2 = 0.4973 | 992.6 | –
308.14 K, x2 = 0.6898 | 971.3 | –
308.14 K, x2 = 0.7912 | 955.1 | –
308.14 K, x2 = 0.898 | 935.5 | –
308.14 K, x2 = 0.9483 | 924.6 | –
308.15 K, x2 = 0 | 1032.5 | –
308.15 K, x2 = 0.1097 | 1021.6 | –
308.15 K, x2 = 0.5928 | 984.3 | –
313.14 K, x2 = 0.0646 | 1022 | –
313.14 K, x2 = 0.1097 | 1018 | –
313.14 K, x2 = 0.2074 | 1009.2 | –
313.14 K, x2 = 0.3079 | 1000.6 | –
313.14 K, x2 = 0.3983 | 994.2 | –
313.14 K, x2 = 0.4973 | 988.8 | –
313.14 K, x2 = 0.6898 | 966.1 | –
313.14 K, x2 = 0.7912 | 949.5 | –
313.14 K, x2 = 0.898 | 929.3 | –
313.14 K, x2 = 0.9483 | 918.1 | –
313.15 K, x2 = 0.5928 | 979.6 | –
313.16 K, x2 = 0 | 1029.1 | –
318.14 K, x2 = 0.1097 | 1014.3 | –
318.14 K, x2 = 0.3079 | 996.3 | –
318.14 K, x2 = 0.5928 | 974.8 | –
318.14 K, x2 = 0.898 | 923 | –
318.14 K, x2 = 0.9483 | 911.5 | –
318.15 K, x2 = 0.0646 | 1018.3 | –
318.15 K, x2 = 0.2074 | 1006.1 | –
318.15 K, x2 = 0.3983 | 989.8 | –
318.15 K, x2 = 0.4973 | 983.8 | –
318.15 K, x2 = 0.6898 | 961 | –
318.15 K, x2 = 0.7912 | 943.8 | –
318.16 K, x2 = 0 | 1025.7 | –
323.14 K, x2 = 0.1097 | 1010.6 | –
323.14 K, x2 = 0.5928 | 970 | –
323.15 K, x2 = 0.0646 | 1014.6 | –
323.15 K, x2 = 0.2074 | 1001.4 | –
323.15 K, x2 = 0.3079 | 992.33 | –
323.15 K, x2 = 0.3983 | 985.3 | –
323.15 K, x2 = 0.4973 | 979.2 | –
323.15 K, x2 = 0.6898 | 955.7 | –
323.15 K, x2 = 0.7912 | 938.1 | –
323.15 K, x2 = 0.898 | 916.7 | –
323.15 K, x2 = 0.9483 | 904.9 | –
323.16 K, x2 = 0 | 1022.3 | –
